From article PMC9014415, “Repositioning of a Diaminothiazole Series Confirmed to Target the Cyclin-Dependent Kinase CRK12 for Use in the Treatment of African Animal Trypanosomiasis” (Journal of Medicinal Chemistry, 2022)
Converted amounts (≈) assume the structure as drawn.

Experiments:
[1] = Solubility of compound 1 in PBS pH 7.4 (filtration, UHPLC); assay type: physicochemical; details: phosphate buffered saline; aqueous; PBS pH 7.4, 24 h mixing, UHPLC (method used for compound 1)
Method: software. All experiments were conducted with technical duplicates and at least three biological […]
1.4 Cytotoxicity assays – Rat skeletal myoblasts (L6)
The cytotoxicity of test compounds was evaluated using a rat skeletal myoblast (L6) cell line, as previously described3, but with minor modifications. Cells were grown in RPMI media supplemented with 10% (v/v) fetal calf serum. L6 cells at a seeding density of 2 x 10^4 cells/mL were incubated in microtiter plates overnight at 37 °C and 5 % CO2 until adherent. The following day, test compounds were added to the plates (3-fold serial dilutions), prior to incubation for 69 h. […] The plates were read using a SpectraMax (Gemini XS) fluorescence reader at an excitation wavelength of 536 nm and an emission wavelength of 588 nm. EC50 values were determined using SOFTmax Pro 5.2 analysis software. […]
The aqueous solubility of test compounds was measured using laser nephelometry. […] Triplicate aliquots were transferred to a flat-bottomed polystyrene plate which was immediately read on a NEPHELOstar nephelometer (BMG Lab Technologies). […]
Solubility of compound 1 was measured by a different method. […]
solution was then mixed for 24 h (rotary mixing, 900 rpm, 25°C) excluding light. […] The resulting filtrate was analysed for dissolved compound 1 using a truncated UHPLC methodology. […]

Protein plasma binding = assay type: in vitro ADME; details: mouse
Method: 2.4 Protein plasma binding
This was determined as previously described.6
2.5 PK and maximum tolerated dose - mouse
PK studies in female NMRI mice (Figure S1): Test compounds 1, 2 and 10 were dosed SC at 10 mg free base/kg (dose volume 10 mL/kg; dose vehicle: 5% (v/v) DMSO, 40% polyethylene glycol 400 (PEG400) and 55% deionized water) to female NMRI mice (n = 3). Blood samples (10 μL) were taken from each mouse at 0.08, 0.25, 0.5, 1, 2, 4, 6, 8 h post dose (24 h post dose for compounds 2 and 10 only) and mixed with two volumes of deionized water (20 μL). Alternatively, compound 2 was delivered for 48 h via SC implanted ALZET osmotic pumps (10, 25 and 50 mg free base/mL, vehicle: 50% DMSO and 50% deionized water) to the female NMRI mouse (n = 3). Blood samples (10 μL) from each mouse were taken at 1, 3, 6, 24, 30 and 48 h post-dose and mixed with two volumes of deionized water (20 μL).
Compound 1 as free base in 5% DMSO; 40% PEG400; 55% MilliQ water was dosed daily subcutaneously with doses of 50 mg/kg, 100 mg/kg and 300 mg/kg for 3 days.
2.6 PK and formulation studies - male Sprague rats […]

CC(C)CS(=O)(=O)N[C@H]1CC[C@H](Nc2nc(N)c(C(=O)c3c(F)cccc3F)s2)CC1 [Compound 1, N-((trans)-4-((4-Amino-5-(2,6-difluorobenzoyl)thiazol-2-yl)amino)cyclohexyl)-2-methylpropane-1-sulfonamide]
solubility at 24 h [1]: 105 µM (≈ 49.6 µg/mL)
fraction unbound (Protein plasma binding): 0.16
